{
  "source": "paper PMC6930555",
  "about": "“Design, Synthesis, and Structural Characterization of Novel Diazaphenothiazines with 1,2,3-Triazole Substituents as Promising Antiproliferative Agents” (Molecules, 2019)",
  "key": {"[1]": {"tested_on": "H3, TP53, CDKN1A, BCL-2 and BAX genes in glioblastoma SNB-19", "experiment": "RT-qPCR gene expression, SNB-19", "type": "cell-based, human", "details": "SNB-19, 0.5 µg/mL, 24 h", "protocol": "(§1) In this method the gene transcriptional activities of proliferation marker (H3), cell cycle regulator (TP53 and CDKNIA), and intracellular apoptosis pathway (BCL-2 and BAX) were analyzed. It has been known that the growth, metabolism, and eventual death of the cells in the body are controlled by hundreds of genes working together. The gene encoding histone H3 plays a crucial role in regulation of the expression of the genetic information included in the DNA.\n(§2) Genes trancriptional activity (H3, TP53, CDKN1A, BCL-2, and BAX) was evaluated by real time RT-qPCR with OPTICON TM DNA Engine (MJ Research, Watertown, MA, USA) and QuantTect® SYBR® Green RT-PCR Kit (Quiagen, Valencia, CA). Cells were exposed to compound 4 at a 0.5 µg/mL concentration for 24 h. The RNA extraction was made by using Quick-RNA™ Kit MiniPrep (ZYMO […]). Total RNA integrity was analysed in 1.2% agarose electrophoresis with added ethidium bromide. The quantity and purity of extracted total RNA were determined by using spectrophotometric analysis with HP845 (Hewlett Packard, Waldbronn, Germany) spectrophotometer. The statistical analysis was performed using the Statistica 8.0 software. All values were expressed as means ± SE."}, "[2]": {"tested_on": "SNB-19, Caco-2, A549 and MDA-MB231 cancer cell lines", "experiment": "WST-1 assay, summary over the cancer cell line panel", "type": "cell-based, human", "details": "Homo sapiens; span over SNB-19, Caco-2, A549, MDA-MB231; read-out: IC50 across all investigated cancer cell lines", "protocol": "(§3) The antiproliferative activity of all 20 new 10-substituted 1,2,3-triazole derivatives of dipyridothiazines was tested in vitro against cancer cell lines: glioblastoma SNB-19, colorectal carcinoma Caco-2, lung cancer A549, and breast cancer MDA-MB231 using the WST-1 assay. Normal human fibroblasts NHDF were used as a control.\n(§4) All dipyridothiazines with 1,2,3-triazole substituents (1–4)b–f were evaluated for their anticancer activity using four cultured cell lines: SNB-19 (human glioblastoma, DSMZ—German Collection of Microorganisms and Cell Cultures, Braunschweig, Germany), Caco-2 (human colon adenocarcinoma, DSMZ—German Collection of Microorganisms and Cell Cultures, Braunschweig, Germany), A549 (human lung carcinoma, ATCC, Manassas, VA, USA) and MDA-MB231 (human breast adenocarcinoma, ATCC, Manassas, VA, USA), and NHDF (human dermal fibroblast cell line, ATCC, Manassas, VA, USA. The cultured cells were kept at 37 °C and 5% CO2. The cells were seeded (1 × 10^4 cells/well/100 µL DMEM supplemented with 10% FCS and streptomycin and penicillin) using 96-well plates (Corning). The cells were counted in a hemocytometer (Burker’s chamber) using a phase contrast Olympus IX50 microscope equipped with Sony SSC-DC58 AP camera and Olympus DP10 digital camera.\n(§5) Antiproliferative effect of the obtained compounds on the cancer cells was determined using the cell proliferation reagent WST-1 assay (Roche Diagnostics, Mannheim, Germany). This assay is based on the viable cell’s ability to cleave the bright red-colored tetrazolium salt (2-(4-iodophenyl)-3-(4-nitrophenyl)-5-(2,4-disulfophenyl)-2H-tetrazolium, monosodium salt) to dark red soluble formazan by cellular enzymes. An increase in the amount of formazan dye formed correlates to the number of metabolically active cells in the culture. The formazan dye produced by metabolically active cells is quantified by a scanning ELISA reader by measuring the absorbance of the dye solution at appropriate wavelengths. The examined cells were exposed to the tested compounds for 72 h at various concentrations between 0.1 μg/mL and 100 μg/mL (prepared initially at concentration of 1 mg/mL in DMSO). The cells were incubated with WST-1 (10 μL) for 1 h and the absorbance of the samples against a background control was measured at 450 nm using a microplate reader with a reference wavelength at 600 nm. The results are expressed as means of at least two independent experiments performed in triplicate."}, "glioblastoma SNB-19": {"tested_on": "glioblastoma SNB-19", "experiment": "WST-1 cell proliferation assay, SNB-19", "type": "cell-based, human", "details": "Homo sapiens; SNB-19, WST-1, 72 h; read-out: Anticancer Activity IC50 SNB-19", "protocol": "as §3, with “Encouraged by our previous promising results in the field of antiproliferative activity of dipyridothiazines as well as by the good anticancer activity of the 1,2,3-triazoles, we decided to combine the biological potentials of dipyridothiazines and triazole moieties, hoping to obtain compounds with better activity. The” for “The”\nas §4, §5"}, "lung cancer A549": {"tested_on": "lung cancer A549", "experiment": "WST-1 cell proliferation assay, A549", "type": "cell-based, human", "details": "Homo sapiens; A549, WST-1, 72 h; read-out: Anticancer Activity IC50 A549", "protocol": "as §3, with “Encouraged by our previous promising results in the field of antiproliferative activity of dipyridothiazines as well as by the good anticancer activity of the 1,2,3-triazoles, we decided to combine the biological potentials of dipyridothiazines and triazole moieties, hoping to obtain compounds with better activity. The” for “The”\nas §4, §5"}, "[3]": {"tested_on": "H3, TP53, CDKN1A, BCL-2 and BAX genes in SNB-19, Caco-2, A549 and MDA-MB231", "experiment": "RT-qPCR gene expression, summary over the cancer cell lines", "type": "cell-based, human", "protocol": "as §1, §2"}, "[4]": {"tested_on": "H3, TP53, CDKN1A, BCL-2 and BAX genes in lung cancer A549", "experiment": "RT-qPCR gene expression, A549", "type": "cell-based, human", "details": "A549, 0.5 µg/mL, 24 h", "protocol": "as §1, §2"}, "[5]": {"tested_on": "colorectal carcinoma Caco-2", "experiment": "WST-1 cell proliferation assay, Caco-2", "type": "cell-based", "details": "Homo sapiens; Caco-2, WST-1, 72 h; read-out: Anticancer Activity IC50 Caco-2", "protocol": "as §3, §4, §5"}, "[6]": {"tested_on": "H3, TP53, CDKN1A, BCL-2 and BAX genes in breast cancer MDA-MB231", "experiment": "RT-qPCR gene expression, MDA-MB231", "type": "cell-based, human", "protocol": "as §1, §2"}, "breast cancer MDA-MB231": {"tested_on": "breast cancer MDA-MB231", "experiment": "WST-1 cell proliferation assay, MDA-MB231", "type": "cell-based, human", "details": "Homo sapiens, MDA-MB-231; MDA-MB231, WST-1, 72 h; read-out: Anticancer Activity IC50 MDA-MB231", "protocol": "as §3, with “Encouraged by our previous promising results in the field of antiproliferative activity of dipyridothiazines as well as by the good anticancer activity of the 1,2,3-triazoles, we decided to combine the biological potentials of dipyridothiazines and triazole moieties, hoping to obtain compounds with better activity. The” for “The”\nas §4, §5"}, "[7]": {"tested_on": "normal human fibroblasts NHDF", "experiment": "WST-1 cytotoxicity assay, normal fibroblasts NHDF", "type": "cell-based", "protocol": "as §3, with “Encouraged by our previous promising results in the field of antiproliferative activity of dipyridothiazines as well as by the good anticancer activity of the 1,2,3-triazoles, we decided to combine the biological potentials of dipyridothiazines and triazole moieties, hoping to obtain compounds with better activity. The” for “The”\nas §4, §5"}, "[8]": {"tested_on": "H3, TP53, CDKN1A, BCL-2 and BAX genes in colorectal carcinoma Caco-2", "experiment": "RT-qPCR gene expression, Caco-2", "type": "cell-based, human", "protocol": "as §1, §2"}},
  "data": [
    {"smiles": "Clc1ccc(Cn2cc(CN3c4cccnc4Sc4cccnc43)nn2)cc1", "note": "[1d, 10-[(1-(4-Chlorobenzyl)-1H-1,2,3-triazol-4-yl)methyl]-1,6-diazaphenothiazine]", "values": [
      {"measurement": "BAX number of mRNA copies/μg total RNA", "setting": "[1]", "result": "220+/−18 mRNA Copies/μg Total RNA"},
      {"measurement": "BCL-2 number of mRNA copies/μg total RNA", "setting": "[1]", "result": "17497+/−4607 mRNA Copies/μg Total RNA"},
      {"measurement": "CDKN1A number of mRNA copies/μg total RNA", "setting": "[1]", "result": "308+/−51 mRNA Copies/μg Total RNA"},
      {"measurement": "H3 number of mRNA copies/μg total RNA", "setting": "[1]", "result": "52+/−11 mRNA Copies/μg Total RNA"},
      {"measurement": "TP53 number of mRNA copies/μg total RNA", "setting": "[1]", "result": "128+/−24 mRNA Copies/μg Total RNA"},
      {"measurement": "IC50", "setting": "[2]", "result": "250 to 4660", "unit": "nM"},
      {"measurement": "IC50", "setting": "glioblastoma SNB-19", "result": 4660, "unit": "nM"},
      {"measurement": "IC50", "setting": "lung cancer A549", "result": 250, "unit": "nM"},
      {"measurement": "effect on expression of BCL-2 (in words)", "setting": "[3]; SNB-19, A549 and MDA-MB231", "result": "remarkably reduced"},
      {"measurement": "effect on CDKN1A copies (in words)", "setting": "[3]; all cancer cells", "result": "strong decline"},
      {"measurement": "effect on mRNA copy number of the histone H3 gene (in words)", "setting": "[3]; all cancer lines", "result": "strongly changed"},
      {"measurement": "effect on expression of BAX (in words)", "setting": "[3]; all investigated cancer cell lines", "result": "decrease"},
      {"measurement": "effect on amount of mRNA copies of TP53 (in words)", "setting": "[3]; all investigated cancer lines", "result": "significantly interfered"},
      {"measurement": "BAX number of mRNA copies/μg total RNA", "setting": "[4]", "result": "835+/−231 mRNA Copies/μg Total RNA"},
      {"measurement": "BCL-2/BAX gene expression ratio", "setting": "[4]", "result": 18},
      {"measurement": "BCL-2 number of mRNA copies/μg total RNA", "setting": "[4]", "result": "15631+/−2296 mRNA Copies/μg Total RNA"},
      {"measurement": "CDKN1A number of mRNA copies/μg total RNA", "setting": "[4]", "result": "969+/−137 mRNA Copies/μg Total RNA"},
      {"measurement": "H3 number of mRNA copies/μg total RNA", "setting": "[4]", "result": "18+/−5 mRNA Copies/μg Total RNA"},
      {"measurement": "TP53 number of mRNA copies/μg total RNA", "setting": "[4]", "result": "54+/−19 mRNA Copies/μg Total RNA"},
      {"measurement": "IC50", "setting": "[5]", "result": 250, "unit": "nM"},
      {"measurement": "apoptosis pathway from gene expression ratio BCL-2/BAX (in words)", "setting": "[6]; MDA-MB231", "result": "activation of the mitochondrial apoptosis"},
      {"measurement": "BAX number of mRNA copies/μg total RNA", "setting": "[6]; MDA-MB231, 0.5 µg/mL, 24 h", "result": "221+/−16 mRNA Copies/μg Total RNA"},
      {"measurement": "BCL-2 number of mRNA copies/μg total RNA", "setting": "[6]; MDA-MB231, 0.5 µg/mL, 24 h", "result": "16495+/−4607 mRNA Copies/μg Total RNA"},
      {"measurement": "CDKN1A number of mRNA copies/μg total RNA", "setting": "[6]; MDA-MB231, 0.5 µg/mL, 24 h", "result": "577+/−308 mRNA Copies/μg Total RNA"},
      {"measurement": "H3 number of mRNA copies/μg total RNA", "setting": "[6]; MDA-MB231, 0.5 µg/mL, 24 h", "result": "8+/−6 mRNA Copies/μg Total RNA"},
      {"measurement": "TP53 number of mRNA copies/μg total RNA", "setting": "[6]; MDA-MB231, 0.5 µg/mL, 24 h", "result": "46+/−20 mRNA Copies/μg Total RNA"},
      {"measurement": "IC50", "setting": "breast cancer MDA-MB231", "result": 510, "unit": "nM"},
      {"measurement": "cytotoxicity against normal human fibroblasts (in words)", "setting": "[7]; NHDF", "result": "relatively low cytotoxicity"},
      {"measurement": "IC50", "setting": "[7]; normal human fibroblasts NHDF, WST-1, 72 h", "result": "> 100000", "unit": "nM"},
      {"measurement": "effect on expression of BCL-2 (in words)", "setting": "[8]; Caco-2", "result": "slight increase"},
      {"measurement": "BAX number of mRNA copies/μg total RNA", "setting": "[8]; Caco-2, 0.5 µg/mL, 24 h", "result": "969+/−264 mRNA Copies/μg Total RNA"},
      {"measurement": "BCL-2/BAX gene expression ratio", "setting": "[8]; Caco-2, 0.5 µg/mL, 24 h", "result": 743},
      {"measurement": "BCL-2 number of mRNA copies/μg total RNA", "setting": "[8]; Caco-2, 0.5 µg/mL, 24 h", "result": "723708+/−217134 mRNA Copies/μg Total RNA"},
      {"measurement": "CDKN1A number of mRNA copies/μg total RNA", "setting": "[8]; Caco-2, 0.5 µg/mL, 24 h", "result": "260+/−21 mRNA Copies/μg Total RNA"},
      {"measurement": "H3 number of mRNA copies/μg total RNA", "setting": "[8]; Caco-2, 0.5 µg/mL, 24 h", "result": "45+/−3 mRNA Copies/μg Total RNA"},
      {"measurement": "TP53 number of mRNA copies/μg total RNA", "setting": "[8]; Caco-2, 0.5 µg/mL, 24 h", "result": "193+/−16 mRNA Copies/μg Total RNA"}
    ]}
  ]
}
